Reference: US5380834A, “Immuno-suppressive agent” (Ishihara Sangyo Kaisha Ltd., priority 1992, dated 1995)
Values after ≈ are worked out from the molar mass of the structure shown.

Key:
murine bone mallow cells = assay: Effects on the murine bone mallow cells (proliferation, 3H-TdR uptake); type: cell-based, BALB/c mouse; conditions: Mus musculus, bone marrow cells; 20% L929 culture supernatant, 48 hours, 3H-TdR uptake; Tables 12-15; read-out: IC50 value, c (murine bone mallow cells)
[1] = system: IgGl antibody production from murine spleen B cells; assay: Effects on the IgGl antibody production from murine spleen cells (LPS + IL4); type: cell-based, BALB/c mouse; conditions: Mus musculus, B-cell, 168 h; spleen B cells, LPS 10 μg/ml, IL4 100 U/ml, 7 days, enzyme-immunoassay; read-out: IC50 value, IgGl antibody production
[2] = system: IgE antibody production from murine spleen B cells; assay: Effects on the IgE antibody production from murine spleen cells (LPS + IL4); type: cell-based, BALB/c mouse; conditions: Mus musculus, B-cell, 168 h; spleen B cells, LPS 10 μg/ml, IL4 100 U/ml, 7 days, enzyme-immunoassay; read-out: IC50 value, IgE antibody production
[3] = system: Carrageenan-induced acute inflammation in rats; assay: Carrageenan-induced paw edema model (anti-inflammatory activity); type: in vivo, SD male rat; conditions: 50 mg/Kg orally one hour before carrageenan, 3 hours, n=4; control 144 ± 8; P < 0.01 (No. 29), P < 0.05 (Nos. 1, 17)
Protocol: A test for an anti-inflammatory activity was conducted by means of carrageenan-induced paw edema model which is commonly used for evaluation of the effectiveness of a common anti-inflammatory agent (NSAID).
0.1 ml of a 1% λ-carrageenan solution was injected intradermally at the sole of the right paw of a SD male rat (six weeks old). Three hours later, the sole volumes of paws on both sides were measured, and the difference in the volume between the right paw and the left paw was taken as the degree of edema. The test compound was orally administered in an amount of 1 ml/100 g (body weight) one hour prior to the administration of carrageenan. To the control group, a physiological saline was administered in the same amount.

Structure (SMILES)	IC50 (murine bone mallow cells) [µg/mL]	IC50 [1] [µg/mL]	IC50 [2] [µg/mL]	Swelling of paw, Average ± SD [3]
C#C[C@]1(O)C=C[C@H]2CO[C@@H]1O2 [Compound 29]	> 1000	380	320	97 ± 22 × 10^-2 cm^3
O[C@H]1C=C[C@H]2CO[C@@H]1O2 [Compound 1, 1,6-anhydro-3,4-dideoxy-β-D-threo-hex-3-enopyranose]	69 (≈ 539 µM)	37	32	100 ± 33 × 10^-2 cm^3
O=C(O[C@H]1C=C[C@H]2CO[C@@H]1O2)c1ccco1 [Compound 17, 1,6-anhydro-3,4-dideoxy-2-O-(2-furancarbonyl)-β-D-threo-hex-3-enopyranose]	510 (≈ 2300 µM)	1	3.2	95 ± 26 × 10^-2 cm^3
